Source: US20260083722A1, “BIFUNCTIONAL DEGRADERS COMPRISING ELECTROPHILIC PROTACS THAT ENGAGE DCAF1 AND PHARMACEUTICAL COMPOSITIONS COMPRISING THE SAME” (THE SCRIPPS RESEARCH INSTITUTE, priority 2022, published 2026)
pIC50: −log10 of the molar value. Where a SMILES comes first, the peptide text is derived from it. The star is where a group is joined. Cbz = O=C(OCc1ccccc1)*

Key:
HA-FKBP12 = biological target: T1, HA-FKBP12 (Homo sapiens, UniProt P62942); assay: HA-FKBP12 abundance by Western blotting in transfected HEK293T cells; format: cell-based; conditions: for quantity of HA-FKBP12 and FLAG-DCAF1 in inhibitor-treated cells: HEK293T co-expressing HA-FKBP12 and FLAG-DCAF1
T1 construct: expressed in transfected cells; host or cells: HEK293T
T1 sequence (P62942 whole entry): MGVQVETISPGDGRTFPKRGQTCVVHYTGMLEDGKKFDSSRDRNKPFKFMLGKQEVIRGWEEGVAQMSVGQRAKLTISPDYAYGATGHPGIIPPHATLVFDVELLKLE
From the text: (A) Left, western blots showing concentration-dependent effects of YT47R (upper) and YT41R (lower) on FKBP12 abundance in HEK293T cells expressing HA-FBKP12 with or without co-expression of FLAG-DCAF1. Right, quantification of HA-FKBP12 abundance in the indicated experimental groups. (B) Left, western blots showing effects of YT47R versus YT47S (upper) and YT41R versus YT41S (lower) on FKBP12 abundance in HEK293T cells co-expressing HA-FBKP12 and FLAG-DCAF1. Right, quantification of HA-FKBP12 abundance in the indicated experimental groups. (C) Western blots showing effects of YT47R (left blots) and YT41R (right blots) on FKBP12 abundance in HEK293T cells co-expressing HA-FBKP12 and either FLAG-DCAF1-WT or FLAG-DCAF1-C1113A mutant. Quantification of HA-FKBP12 abundance in the indicated experimental groups is shown in the adjacent bar graphs. For (A-C), FKBP12 abundance was determined at 24 h post-treatment with compounds, and data are mean values±SEM for three independent experiments. Statistical significance was calculated with unpaired two-tailed Student's t-tests comparing YT41R/YT47R- and DMSO-treated cells. ***P<0.001, ****P<0.0001.
(A) Left, western blots showing effects of proteasome (MG132) and Neddylation (MLN4924) inhibitors (1 h pre-treatment) on YT47R- and YT41R-dependent degradation of FKBP12 in HEK293T cells co-expressing HA-FBKP12 and FLAG-DCAF1. FKBP12 abundance was determined at 24 h post-treatment with YT47R or YT41R. Right, quantification of HA-FKBP12 abundance in the indicated experimental groups. (B) Left, western blots showing effects of the FKBP12 ligand SLF (20 μM) or DCAF1 ligand MY-11B (1 h pre-treatment with 20 μM SLF or 5 μM MY-11B) on YT47R- and YT41R-dependent degradation of FKBP12 in HEK293T cells co-expressing HA-FBKP12 and FLAG-DCAF1. FKBP12 abundance was determined at 24 h post-treatment with YT47R or YT41R. Right, quantification of HA-FKBP12 abundance in the indicated experimental groups. (C) Left, western blots showing effects of MY-11A or MY-11B (5 μM, 1 h pre-treatment) on YT47R- and YT41R-dependent degradation of FKBP12 in HEK293T cells co-expressing HA-FBKP12 and FLAG-DCAF1. FKBP12 abundance was determined at 24 h post-treatment with YT47R or YT41R. Right, quantification of HA-FKBP12 abundance in the indicated experimental groups. For (A-C), data are mean values±SEM for three-five independent experiments. Statistical significance was calculated with unpaired two-tailed Student's t-tests comparing YT41R/YT47R- and DMSO-treated cells. ****P<0.0001.
Figure S3. Concentration-dependent degradation of FKBP12 by DCAF1-directed electrophilic PROTACs. Top, western blots showing concentration-dependent effects of YT47R and YT41R on FKBP12 abundance in HEK293T cells co-expressing HA-FBKP12 and FLAG-DCAF1. Data are mean values±SEM for four independent experiments. Statistical significance was calculated with unpaired two-tailed Student's t-tests comparing YT41R/YT47R- and DMSO-treated cells. *P<0.1, **P<0.01, ***P<0.001, ****P<0.0001.
Figure S4. Time-dependent degradation of FKBP12 by DCAF1-directed electrophilic PROTACs. Top, western blots showing time-dependent effects of YT47R and YT41R (2 μM each) on FKBP12 abundance in HEK293T cells co-expressing HA-FBKP12 and FLAG-DCAF1. Data are mean values±SEM for four independent experiments. Statistical significance was calculated with unpaired two-tailed Student's t-tests comparing YT41R/YT47R- and DMSO-treated cells. ****P<0.0001.
We next treated HEK293T cells co-transfected with FLAG epitope-tagged full length DCAF1 (a.a.'s 1-1507) and HA (hemagglutinin) epitope-tagged FKBP12 with a concentration range of YT41R or YT47R and, after 24 h, measured HA-FKBP12 abundance by Western blotting.

[1] = biological target: T2, recombinant DCAF1-WT (a.a.'s 1046-1396) (Homo sapiens, UniProt Q9Y4B6); assay: gel-ABPP with recombinant purified DCAF1-WT doped into HEK293T cell proteome; format: binding; conditions: for block of MY-11B labeling of recombinant DCAF1 by pre-treatment: 6.25-100 μM, MY-11B 25 μM, 1 h
T2 construct: form of DCAF1 containing the WD40 domain (amino acids (a.a.'s) 1046-1396); made in house
T2 sequence (Q9Y4B6 1046-1396): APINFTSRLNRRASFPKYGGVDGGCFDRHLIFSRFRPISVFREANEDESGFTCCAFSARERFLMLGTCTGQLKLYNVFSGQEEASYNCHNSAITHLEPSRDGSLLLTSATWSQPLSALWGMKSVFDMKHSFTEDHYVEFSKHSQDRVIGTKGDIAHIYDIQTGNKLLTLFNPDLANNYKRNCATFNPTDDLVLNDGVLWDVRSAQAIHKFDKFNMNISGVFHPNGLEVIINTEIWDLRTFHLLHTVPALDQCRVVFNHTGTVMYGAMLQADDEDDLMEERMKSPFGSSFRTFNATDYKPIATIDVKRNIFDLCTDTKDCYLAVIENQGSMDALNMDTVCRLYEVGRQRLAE
T2 sequence (Q16531 whole entry partner, the tested form may be a part): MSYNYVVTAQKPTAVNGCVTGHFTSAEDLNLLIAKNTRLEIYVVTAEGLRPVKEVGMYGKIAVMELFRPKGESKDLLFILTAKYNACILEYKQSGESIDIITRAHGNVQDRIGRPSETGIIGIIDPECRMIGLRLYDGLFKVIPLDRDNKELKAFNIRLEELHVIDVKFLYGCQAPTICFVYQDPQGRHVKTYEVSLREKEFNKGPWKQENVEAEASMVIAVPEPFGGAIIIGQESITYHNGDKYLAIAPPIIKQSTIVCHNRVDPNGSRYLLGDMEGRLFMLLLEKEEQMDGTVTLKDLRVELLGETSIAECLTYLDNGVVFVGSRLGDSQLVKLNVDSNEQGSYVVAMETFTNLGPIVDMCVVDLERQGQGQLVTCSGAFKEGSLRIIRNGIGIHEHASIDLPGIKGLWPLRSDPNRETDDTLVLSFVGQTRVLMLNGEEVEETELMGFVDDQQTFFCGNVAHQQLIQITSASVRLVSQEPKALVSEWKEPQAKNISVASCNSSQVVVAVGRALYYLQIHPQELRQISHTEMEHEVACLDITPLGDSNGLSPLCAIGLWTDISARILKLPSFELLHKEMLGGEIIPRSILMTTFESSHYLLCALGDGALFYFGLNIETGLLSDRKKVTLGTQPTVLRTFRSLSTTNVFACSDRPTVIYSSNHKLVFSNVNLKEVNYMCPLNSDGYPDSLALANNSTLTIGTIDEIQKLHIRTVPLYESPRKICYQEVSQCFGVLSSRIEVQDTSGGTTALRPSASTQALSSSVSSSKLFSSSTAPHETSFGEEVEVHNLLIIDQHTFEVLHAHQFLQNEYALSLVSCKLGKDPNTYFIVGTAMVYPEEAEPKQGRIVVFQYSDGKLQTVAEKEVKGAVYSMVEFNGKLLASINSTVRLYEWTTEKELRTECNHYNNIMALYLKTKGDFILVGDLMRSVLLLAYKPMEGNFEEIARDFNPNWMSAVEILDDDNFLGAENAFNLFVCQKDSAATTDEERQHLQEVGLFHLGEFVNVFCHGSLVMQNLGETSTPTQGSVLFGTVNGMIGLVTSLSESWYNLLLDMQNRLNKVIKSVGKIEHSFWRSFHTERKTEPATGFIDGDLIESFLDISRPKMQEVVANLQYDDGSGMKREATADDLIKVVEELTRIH
From the text: FIG. 2 that azetidine acrylamides stereo- and site-selectively engage recombinant DCAF1_C1113. (A) Domain map of DCAF1 with the region used for recombinant protein studies marked in a bracket (a.a.'s 1046-1396) and C1113 highlighted in red. (B) Crystal structure of a DCAF1-Vpx complex (pdb: 5AJA). DCAF1 (a.a.'s 1046-1396) is shown in cyan, Vpx is shown in yellow, and C1113, which is located at the DCAF1-Vpx interface is shown in red. (C) Structures of alkyne-modified azetidine acrylamides MY-11A (5) and MY-11B (6). (D) Gel-ABPP showing the concentration-dependent reactivity of MY-11A and MY-11B (1 h) reactivity with recombinant, purified DCAF1-WT or the DCAF1-C1113A mutant (0.06 μg/μL of DCAF1 protein per sample) doped into HEK293T cell proteome (1 μg/μL). MY-11A/B labeling of proteins was visualized by CuAAC conjugation to an azide-rhodamine tag followed by SDS-PAGE and in-gel fluorescence scanning. Results are from a single experiment representative of two independent experiments. (E) Gel-ABPP showing the concentration-dependent effects of MY-1A and MY-1B on MY-11B reactivity with DCAF1-WT. Samples were treated with MY-1A/B for 2 h, followed by MY-11B (25 μM, 1 h) and analyzed as described in (D). Left, quantification of data presented as mean values±SEM from two independent experiments. Right, representative gel-ABPP results. (D, E) Lower images are Coomassie blue-stained gels corresponding to ABPP gels shown in upper images.
(A) Structures of candidate electrophilic PROTACs YT41R (7), YT41S (8), YT47R (9), and YT47S (10). (B) Gel-ABPP showing the concentration-dependent effects of YT41R and YT47R on MY-11B reactivity with DCAF1-WT protein (0.06 μg/μL of DCAF1 protein per sample) doped into HEK293T cell proteome (1 μg/μL). Also shown are the effects of YT41S and YT47S tested at a single concentration (100 μM). Samples were treated with heterobifunctional compounds for 2 h, followed by MY-11B (25 μM, 1 h) and analyzed as described in FIG. 2D. Left, representative gel-ABPP results. Lower image is Coomassie blue-stained gel corresponding to ABPP gel shown in upper image. Right, quantification of data presented as mean values±SEM from two independent experiments.
DCAF1 is a multi-domain substrate receptor for CRL4 ligases (FIG. 2A) that has diverse physiological and disease functions, including being co-opted by the HIV-2 virus to promote degradation of the antiviral host protein SAMHD1^27-28. […] We verified the stereo- and site-selective engagement of DCAF1_C1113 by azetidine acrylamides using alkynylated analogues of MY-1A and MY-1B (MY-11A (5) and MY-11B (6), respectively; FIG. 2C). For these experiments, we doped into HEK293T cell lysates a recombinantly expressed and purified form of DCAF1 containing the WD40 domain (amino acids (a.a.'s) 1046-1396), in complex with the CRL4 adaptor protein DDB1^31, and exposed these samples to varying concentrations of MY-11A or MY-11B. After 1 h, we assessed MY-11A and MY-11B engagement of DCAF1 by copper-catalyzed azide-alkyne cycloaddition (CuAAC)^32 with an azide-rhodamine reporter tag followed by SDS-PAGE and in-gel fluorescence scanning^33. […] We used gel-ABPP to quantify an in vitro target engagement value (TE50) of approximately 25 μM (95% C.I.=13-38 μM) for MY-1B labeling of DCAF1 (FIG. 2E, left).

DCAF1_C1113 = biological target: T3, DCAF1_C1113 (Homo sapiens, UniProt Q9Y4B6); assay: cysteine-directed MS-ABPP (IA-DTB probe) in primary human T cells; format: cell-based; conditions: 3 h; for reactivity with DCAF1_C1113: 20 μM compound
T3 construct: endogenous in cells; host or cells: primary human T cells
T3 sequence (Q9Y4B6 whole entry): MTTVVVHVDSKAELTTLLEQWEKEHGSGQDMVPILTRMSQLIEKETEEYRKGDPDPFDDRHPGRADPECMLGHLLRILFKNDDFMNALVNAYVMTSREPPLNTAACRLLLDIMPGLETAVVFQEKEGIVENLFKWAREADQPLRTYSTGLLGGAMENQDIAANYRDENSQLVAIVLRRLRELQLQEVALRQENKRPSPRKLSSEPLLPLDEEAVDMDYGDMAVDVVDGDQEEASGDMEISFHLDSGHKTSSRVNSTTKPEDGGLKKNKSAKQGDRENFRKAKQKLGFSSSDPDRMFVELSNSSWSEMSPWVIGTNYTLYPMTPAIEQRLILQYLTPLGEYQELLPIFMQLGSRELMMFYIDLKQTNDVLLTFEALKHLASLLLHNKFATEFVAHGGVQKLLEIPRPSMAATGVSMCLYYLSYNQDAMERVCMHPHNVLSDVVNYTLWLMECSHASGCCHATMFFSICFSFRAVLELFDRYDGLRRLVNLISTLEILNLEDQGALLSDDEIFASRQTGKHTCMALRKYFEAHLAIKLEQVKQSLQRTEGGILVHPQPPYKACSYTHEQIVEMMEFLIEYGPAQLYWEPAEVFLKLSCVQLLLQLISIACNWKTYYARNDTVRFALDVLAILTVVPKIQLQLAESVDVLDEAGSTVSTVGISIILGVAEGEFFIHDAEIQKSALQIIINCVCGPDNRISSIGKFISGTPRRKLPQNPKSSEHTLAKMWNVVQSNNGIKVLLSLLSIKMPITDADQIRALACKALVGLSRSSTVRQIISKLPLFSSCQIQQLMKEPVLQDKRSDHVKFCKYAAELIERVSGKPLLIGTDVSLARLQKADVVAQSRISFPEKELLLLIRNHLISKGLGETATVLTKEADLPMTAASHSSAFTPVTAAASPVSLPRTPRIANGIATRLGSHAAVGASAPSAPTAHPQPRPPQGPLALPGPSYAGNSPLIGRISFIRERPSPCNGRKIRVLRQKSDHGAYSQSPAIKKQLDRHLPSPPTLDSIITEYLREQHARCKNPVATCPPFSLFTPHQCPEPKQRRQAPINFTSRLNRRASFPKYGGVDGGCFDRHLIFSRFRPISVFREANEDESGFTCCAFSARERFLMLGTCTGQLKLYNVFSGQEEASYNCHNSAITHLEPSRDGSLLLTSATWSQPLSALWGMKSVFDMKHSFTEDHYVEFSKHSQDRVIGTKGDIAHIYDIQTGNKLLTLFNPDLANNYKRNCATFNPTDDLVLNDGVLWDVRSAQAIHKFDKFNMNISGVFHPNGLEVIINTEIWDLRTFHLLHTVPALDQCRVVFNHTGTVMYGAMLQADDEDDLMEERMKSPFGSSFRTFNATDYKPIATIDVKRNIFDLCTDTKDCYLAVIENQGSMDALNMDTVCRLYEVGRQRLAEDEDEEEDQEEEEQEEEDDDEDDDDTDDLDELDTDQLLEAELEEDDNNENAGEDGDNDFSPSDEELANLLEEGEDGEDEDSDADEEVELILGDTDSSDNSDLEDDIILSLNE
Description: (A) Structures of a set of stereochemically defined azetidine acrylamides MY-1A (1), MY-1B (2), MY-3A (3), and MY-3B (4). (B) Heat map showing cysteines that were substantially engaged by azetidine acrylamides (>75% by at least one compound) in human T cells (20 μM compound, 3 h) as determined by MS-ABPP using an iodoacetamide desthiobiotin (IA-DTB) probe following previously described methods^21. Red arrow marks DCAF1_C1113. (C) MS-ABPP quantification of IA-DTB labeling of DCAF1_C1113 from T cells treated with the indicated azetidine acrylamides (20 μM, 3 h) relative to control T cells treated with DMSO. (D) MS-ABPP quantification of IA-DTB labeling of the indicated cysteines in DCAF1 from T cells treated with MY-1B (20 μM, 3 h) relative to control T cells treated with DMSO. For (B-D), data represent average values (for C and D, average values±SEM) from three independent experiments each performed with two technical replicates, where cysteines were required to have been quantified in at least two experiments for interpretation.
Guided by the principles of diversity-oriented synthesis^22, specifically the design of compounds with densely functionalized and entropically constrained sp^3-rich cores bearing one or more stereocenters, we generated a set of stereoisomeric azetidine acrylamides (FIG. 1A) and screened these compounds by cysteine-directed MS-ABPP^23-26 in primary human T cells. Across more than 10000 quantified cysteines, these experiments uncovered several azetidine acrylamide-cysteine interactions (FIG. 1B and Dataset S1), including the stereo-(FIG. 1B, C) and site-(FIG. 1D) selective engagement of C1113 on the E3 ligase substrate adaptor DCAF1. […] Other quantified cysteines in DCAF1 were unaffected by MY-1B (FIG. 1D).

In the case of CC(C)C[C@@H](C=O)NC(=O)[C@H](CC(C)C)NC(=O)[C@H](CC(C)C)NC(=O)OCc1ccccc1 [MG132, reference compound] (Cbz-Leu-Leu-Leu-aldehyde), the “effect on YT41R/YT47R-mediated degradation of HA-FKBP12” value (HA-FKBP12; 5 μM, 1 h pre-treatment followed by 24 h co-treatment with YT41R/YT47R) was “blocked” and the “quantity of HA-FKBP12 and FLAG-DCAF1 in inhibitor-treated cells” value (HA-FKBP12) was “increased quantities”.

In the case of NS(=O)(=O)OC[C@@H]1C[C@@H](n2ccc3c(N[C@H]4CCc5ccccc54)ncnc32)C[C@@H]1O [MLN4924, reference compound], the “quantity of HA-FKBP12 and FLAG-DCAF1 in inhibitor-treated cells” value (HA-FKBP12) was “without causing alterations” and the “effect on YT41R/YT47R-mediated degradation of HA-FKBP12” value (HA-FKBP12; NAE inhibitor, 1 h pre-treatment) was “impaired”.

C=CC(=O)N1C[C@@H](c2ccc(Br)cc2)[C@H]1C(=O)Nc1cccc2cccnc12 [MY-1A, (2S,3R)-1-acryloyl-3-(4-bromophenyl)-N-(84uinoline-8-yl) azetidine-2-carboxamide] was tested, and the “block of MY-11B labeling of recombinant DCAF1 by pre-treatment” value ([1]; 2 h pre-treatment) was “not” and the “reactivity with DCAF1_C1113” value (DCAF1_C1113) was “inactive”.

In the case of C=CC(=O)N1C[C@H](c2ccc(Br)cc2)[C@@H]1C(=O)Nc1cccc2cccnc12 [MY-1B, (2R,3S)-1-acryloyl-3-(4-bromophenyl)-N-(84uinoline-8-yl) azetidine-2-carboxamide], the “block of MY-11B labeling of recombinant DCAF1 by pre-treatment” value ([1]; 2 h pre-treatment) was “blocked”, the pIC50 ([1]; gel-ABPP, 2 h pre-treatment, 95% C.I.=13-38 μM, read-out: in vitro target engagement value (TE50) for labeling of DCAF1) was about 4.60 and the “reactivity with DCAF1_C1113” value (DCAF1_C1113) was “strongest reactivity”. For the same compound, the “effect on other quantified cysteines in DCAF1” value (DCAF1_C1113; 20 μM) was “unaffected”.

For C=CC(=O)N1C[C@@H](c2ccc(Br)cc2)[C@@H]1C(=O)Nc1cccc2cccnc12 [MY-3B, (2S,3S)-1-acryloyl-3-(4-bromophenyl)-N-(87uinoline-8-yl) azetidine-2-carboxamide], the “reactivity with DCAF1_C1113” value (DCAF1_C1113) was “weaker enantioselective interaction”.

CCC(C)(C)C(=O)C(=O)N1CCCC[C@H]1C(=O)O[C@H](CCc1ccc(OC)c(OC)c1)c1cccc(N)c1 [SLF, reference compound] was tested, and the “effect on YT41R and YT47R-mediated degradation of HA-FKBP12” value (HA-FKBP12; 20 μM, 1 h pre-treatment) was “blocked”.

In the case of C=CC(=O)C1C[C@@H](c2ccc(C(=O)NCCOCCOCCNC(=O)COc3cccc([C@@H](CCc4ccc(OC)c(OC)c4)OC(=O)[C@@H]4CCCCN4C(=O)C(=O)C(C)(C)CC)c3)cc2)[C@H]1C(=O)Nc1cccc2cccnc12 (stereo partly shown) [YT41S], the “inhibition of MY-11B probe reactivity with recombinant DCAF1” value ([1]; 2 h, then MY-11B 25 μM 1 h, YT41S and YT47S at single concentration 100 μM) was “did not impair”.
